# From PMC9322189, “Development of a Personalized Tumor Neoantigen Based Vaccine Formulation (FRAME-001) for Use in a Phase II Trial for the Treatment of Advanced Non-Small Cell Lung Cancer” (Pharmaceutics, 2022)
# Tests used:
# Format in all cases: physicochemical
# [1] = In-use stability of thawed aqueous peptide mixtures at room temperature, UPLC-MS; conditions: 4 h room temperature
# [2] = Filter experiment: peptide adsorption to the 0.22 µm sterilization filter, UPLC-MS
# [3] = Release testing and long-term (frozen) stability of aqueous peptide mixtures (143 µg/mL per peptide in PBS 10 mM pH 7.0), UPLC-MS
# [4] = in FRM001-M1, t = 0 w, % area of peptide peak of sum of the six peptide peaks
sequence,measurement,setting,value
"CKECGRPLDVVHTLLHIRAFMLIKNPMNVK [FRM001P12, neoantigen peptide, in FRM001-M2]",Peptide peak ratio,"[1]; in FRM001-M2, 2 w −25 °C",23.0%
same,Peptide peak ratio,"[1]; in FRM001-M2, 4 w −25 °C",20.5%
same,Peptide peak ratio,"[1]; in FRM001-M2, 8 w −25 °C",21.0%
same,Peptide peak ratio,"[1]; in FRM001-M2, 8 w −80 °C",21.0%
same,Peptide peak ratio,"[1]; in FRM001-M2, 12 w −25 °C",19.7%
same,Peptide peak ratio,"[1]; in FRM001-M2, 12 w −80 °C",20.6%
same,Peptide peak ratio,"[1]; in FRM001-M2, 16 w −25 °C",18.9%
same,Peptide peak ratio,"[1]; in FRM001-M2, 16 w −80 °C",20.0%
same,Peptide peak ratio,"[1]; in FRM001-M2, 32 w −25 °C",22.7%
same,Peptide peak ratio,"[1]; in FRM001-M2, 32 w −80 °C",24.2%
same,Peak ratio,"[2]; in FRM001M2, unfiltered sample",27.7%
same,Peptide peak ratio,"[3]; in FRM001-M2, 2 w −25 °C",22.0%
same,Peptide peak ratio,"[3]; in FRM001-M2, 4 w −25 °C",19.5%
same,Peptide peak ratio,"[3]; in FRM001-M2, 8 w −25 °C",19.6%
same,Peptide peak ratio,"[3]; in FRM001-M2, 8 w −80 °C",20.5%
same,Peptide peak ratio,"[3]; in FRM001-M2, 12 w −25 °C",18.1%
same,Peptide peak ratio,"[3]; in FRM001-M2, 12 w −80 °C",20.0%
same,Peptide peak ratio,"[3]; in FRM001-M2, 16 w −25 °C",17.9%
same,Peptide peak ratio,"[3]; in FRM001-M2, 16 w −80 °C",19.5%
same,Peptide peak ratio,"[3]; in FRM001-M2, 32 w −25 °C",20.3%
same,Peptide peak ratio,"[3]; in FRM001-M2, 32 w −80 °C",22.6%
same,Peptide peak ratio,"[3]; in FRM001-M2, t = 0 w",24.6%
"GCHLFSKRKCSQNKQSKRGKSRFYLSWRPL [FRM001P01, neoantigen peptide of lung tumor LUN021, in FRM001-M1 and FRM001-M4]",Peptide peak ratio,"[1]; in FRM001-M1, 2 w −25 °C",15.2%
same,Peptide peak ratio,"[1]; in FRM001-M1, 4 w −25 °C",14.8%
same,Peptide peak ratio,"[1]; in FRM001-M1, 8 w −25 °C",15.3%
same,Peptide peak ratio,"[1]; in FRM001-M1, 8 w −80 °C",15.2%
same,Peptide peak ratio,"[1]; in FRM001-M1, 12 w −25 °C",15.3%
same,Peptide peak ratio,"[1]; in FRM001-M1, 12 w −80 °C",15.3%
same,Peptide peak ratio,"[1]; in FRM001-M1, 16 w −25 °C",15.5%
same,Peptide peak ratio,"[1]; in FRM001-M1, 16 w −80 °C",15.6%
same,Peptide peak ratio,"[1]; in FRM001-M1, 32 w −25 °C",14.1%
same,Peptide peak ratio,"[1]; in FRM001-M1, 32 w −80 °C",14.1%
same,Peptide peak ratio,"[1]; in FRM001-M4, 2 w −25 °C",14.7%
same,Peptide peak ratio,"[1]; in FRM001-M4, 4 w −25 °C",15.5%
same,Peptide peak ratio,"[1]; in FRM001-M4, 8 w −25 °C",15.3%
same,Peptide peak ratio,"[1]; in FRM001-M4, 8 w −80 °C",15.5%
same,Peptide peak ratio,"[1]; in FRM001-M4, 12 w −25 °C",14.8%
same,Peptide peak ratio,"[1]; in FRM001-M4, 12 w −80 °C",15.1%
same,Peptide peak ratio,"[1]; in FRM001-M4, 16 w −25 °C",12.4%
same,Peptide peak ratio,"[1]; in FRM001-M4, 16 w −80 °C",12.4%
same,Peptide peak ratio,"[1]; in FRM001-M4, 32 w −25 °C",13.1%
same,Peptide peak ratio,"[1]; in FRM001-M4, 32 w −80 °C",14.9%
same,Peak ratio,"[2]; in FRM001M1, unfiltered sample",14.8%
same,Peak ratio,"[2]; in FRM001M4, unfiltered sample",14.9%
same,Peptide peak ratio,"[3]; in FRM001-M1, 2 w −25 °C",15.0%
same,Peptide peak ratio,"[3]; in FRM001-M1, 4 w −25 °C",14.6%
same,Peptide peak ratio,"[3]; in FRM001-M1, 8 w −25 °C",15.2%
same,Peptide peak ratio,"[3]; in FRM001-M1, 8 w −80 °C",15.0%
same,Peptide peak ratio,"[3]; in FRM001-M1, 12 w −25 °C",15.9%
same,Peptide peak ratio,"[3]; in FRM001-M1, 12 w −80 °C",15.5%
same,Peptide peak ratio,"[3]; in FRM001-M1, 16 w −25 °C",15.4%
same,Peptide peak ratio,"[3]; in FRM001-M1, 16 w −80 °C",15.3%
same,Peptide peak ratio,"[3]; in FRM001-M1, 32 w −25 °C",13.4%
same,Peptide peak ratio,"[3]; in FRM001-M1, 32 w −80 °C",14.2%
same,Peptide peak ratio,[3]; [4],15.0%
same,Peptide peak ratio,"[3]; in FRM001-M4, 2 w −25 °C",14.5%
same,Peptide peak ratio,"[3]; in FRM001-M4, 4 w −25 °C",15.4%
same,Peptide peak ratio,"[3]; in FRM001-M4, 8 w −25 °C",15.1%
same,Peptide peak ratio,"[3]; in FRM001-M4, 8 w −80 °C",15.2%
same,Peptide peak ratio,"[3]; in FRM001-M4, 12 w −25 °C",15.1%
same,Peptide peak ratio,"[3]; in FRM001-M4, 12 w −80 °C",14.8%
same,Peptide peak ratio,"[3]; in FRM001-M4, 16 w −25 °C",12.5%
same,Peptide peak ratio,"[3]; in FRM001-M4, 16 w −80 °C",12.5%
same,Peptide peak ratio,"[3]; in FRM001-M4, 32 w −25 °C",12.9%
same,Peptide peak ratio,"[3]; in FRM001-M4, 32 w −80 °C",14.7%
same,Peptide peak ratio,"[3]; in FRM001-M4, t = 0 w",14.4%
"GVDYASCGHLVKIWPRRMNRSDVCTVWS [FRM001P13, neoantigen peptide, in FRM001-M4]",Peptide peak ratio,"[1]; in FRM001-M4, 2 w −25 °C",13.4%
same,Peptide peak ratio,"[1]; in FRM001-M4, 4 w −25 °C",14.5%
same,Peptide peak ratio,"[1]; in FRM001-M4, 8 w −25 °C",14.4%
same,Peptide peak ratio,"[1]; in FRM001-M4, 8 w −80 °C",14.7%
same,Peptide peak ratio,"[1]; in FRM001-M4, 12 w −25 °C",14.6%
same,Peptide peak ratio,"[1]; in FRM001-M4, 12 w −80 °C",14.4%
same,Peptide peak ratio,"[1]; in FRM001-M4, 16 w −25 °C",13.1%
same,Peptide peak ratio,"[1]; in FRM001-M4, 16 w −80 °C",13.0%
same,Peptide peak ratio,"[1]; in FRM001-M4, 32 w −25 °C",13.5%
same,Peptide peak ratio,"[1]; in FRM001-M4, 32 w −80 °C",13.4%
same,Peak ratio,"[2]; in FRM001M4, unfiltered sample",14.1%
same,Peptide peak ratio,"[3]; in FRM001-M4, 2 w −25 °C",13.6%
same,Peptide peak ratio,"[3]; in FRM001-M4, 4 w −25 °C",14.6%
same,Peptide peak ratio,"[3]; in FRM001-M4, 8 w −25 °C",14.7%
same,Peptide peak ratio,"[3]; in FRM001-M4, 8 w −80 °C",14.9%
same,Peptide peak ratio,"[3]; in FRM001-M4, 12 w −25 °C",14.4%
same,Peptide peak ratio,"[3]; in FRM001-M4, 12 w −80 °C",14.6%
same,Peptide peak ratio,"[3]; in FRM001-M4, 16 w −25 °C",13.3%
same,Peptide peak ratio,"[3]; in FRM001-M4, 16 w −80 °C",13.1%
same,Peptide peak ratio,"[3]; in FRM001-M4, 32 w −25 °C",13.6%
same,Peptide peak ratio,"[3]; in FRM001-M4, 32 w −80 °C",13.9%
same,Peptide peak ratio,"[3]; in FRM001-M4, t = 0 w",14.2%
"NTDPSCSCVTPLDFNHCLKNREDNGLPMLS [FRM001P10, neoantigen peptide, in FRM001-M2]",Peptide peak ratio,"[1]; in FRM001-M2, 2 w −25 °C",8.9%
same,Peptide peak ratio,"[1]; in FRM001-M2, 4 w −25 °C",12.1%
same,Peptide peak ratio,"[1]; in FRM001-M2, 8 w −25 °C",12.1%
same,Peptide peak ratio,"[1]; in FRM001-M2, 8 w −80 °C",12.0%
same,Peptide peak ratio,"[1]; in FRM001-M2, 12 w −25 °C",13.7%
same,Peptide peak ratio,"[1]; in FRM001-M2, 12 w −80 °C",13.2%
same,Peptide peak ratio,"[1]; in FRM001-M2, 16 w −25 °C",10.2%
same,Peptide peak ratio,"[1]; in FRM001-M2, 16 w −80 °C",10.1%
same,Peptide peak ratio,"[1]; in FRM001-M2, 32 w −25 °C",9.6%
same,Peptide peak ratio,"[1]; in FRM001-M2, 32 w −80 °C",9.3%
same,Peak ratio,"[2]; in FRM001M2, unfiltered sample",6.1%
same,Peptide peak ratio,"[3]; in FRM001-M2, 2 w −25 °C",7.2%
same,Peptide peak ratio,"[3]; in FRM001-M2, 4 w −25 °C",11.5%
same,Peptide peak ratio,"[3]; in FRM001-M2, 8 w −25 °C",11.0%
same,Peptide peak ratio,"[3]; in FRM001-M2, 8 w −80 °C",12.9%
same,Peptide peak ratio,"[3]; in FRM001-M2, 12 w −25 °C",14.2%
same,Peptide peak ratio,"[3]; in FRM001-M2, 12 w −80 °C",13.8%
same,Peptide peak ratio,"[3]; in FRM001-M2, 16 w −25 °C",9.6%
same,Peptide peak ratio,"[3]; in FRM001-M2, 16 w −80 °C",10.4%
same,Peptide peak ratio,"[3]; in FRM001-M2, 32 w −25 °C",10.8%
same,Peptide peak ratio,"[3]; in FRM001-M2, 32 w −80 °C",10.7%
same,Peptide peak ratio,"[3]; in FRM001-M2, t = 0 w",9.1%
"RHSPNGNGPRSQHHSLITTNTDPSCSCVT [FRM001P14, neoantigen peptide, in FRM001-M1]",Peptide peak ratio,"[1]; in FRM001-M1, 2 w −25 °C",11.3%
same,Peptide peak ratio,"[1]; in FRM001-M1, 4 w −25 °C",10.5%
same,Peptide peak ratio,"[1]; in FRM001-M1, 8 w −25 °C",10.8%
same,Peptide peak ratio,"[1]; in FRM001-M1, 8 w −80 °C",10.7%
same,Peptide peak ratio,"[1]; in FRM001-M1, 12 w −25 °C",11.2%
same,Peptide peak ratio,"[1]; in FRM001-M1, 12 w −80 °C",11.2%
same,Peptide peak ratio,"[1]; in FRM001-M1, 16 w −25 °C",10.5%
same,Peptide peak ratio,"[1]; in FRM001-M1, 16 w −80 °C",10.6%
same,Peptide peak ratio,"[1]; in FRM001-M1, 32 w −25 °C",10.9%
same,Peptide peak ratio,"[1]; in FRM001-M1, 32 w −80 °C",11.5%
same,Peak ratio,"[2]; in FRM001M1, filtered (0.22 µm Millex GV)",10.8%
same,Peak ratio,"[2]; in FRM001M1, unfiltered sample",10.9%
same,Peptide peak ratio,"[3]; in FRM001-M1, 2 w −25 °C",11.2%
same,Peptide peak ratio,"[3]; in FRM001-M1, 4 w −25 °C",10.5%
same,Peptide peak ratio,"[3]; in FRM001-M1, 8 w −25 °C",10.9%
same,Peptide peak ratio,"[3]; in FRM001-M1, 8 w −80 °C",10.8%
same,Peptide peak ratio,"[3]; in FRM001-M1, 12 w −25 °C",11.9%
same,Peptide peak ratio,"[3]; in FRM001-M1, 16 w −25 °C",10.1%
same,Peptide peak ratio,"[3]; in FRM001-M1, 16 w −80 °C",10.7%
same,Peptide peak ratio,"[3]; in FRM001-M1, 32 w −25 °C",7.5%
same,Peptide peak ratio,"[3]; in FRM001-M1, 32 w −80 °C",11.8%
same,Peptide peak ratio,[3]; [4],10.8%
